The text below walks through data of patent US6635771B2, “N-benzhydryl indole compounds” (Wyeth, priority 2001, dated 2003).

Some results are limits rather than exact numbers.

This test addresses T1, cPLA2 (Homo sapiens, UniProt P47712).
T1 sequence (P47712 1-749): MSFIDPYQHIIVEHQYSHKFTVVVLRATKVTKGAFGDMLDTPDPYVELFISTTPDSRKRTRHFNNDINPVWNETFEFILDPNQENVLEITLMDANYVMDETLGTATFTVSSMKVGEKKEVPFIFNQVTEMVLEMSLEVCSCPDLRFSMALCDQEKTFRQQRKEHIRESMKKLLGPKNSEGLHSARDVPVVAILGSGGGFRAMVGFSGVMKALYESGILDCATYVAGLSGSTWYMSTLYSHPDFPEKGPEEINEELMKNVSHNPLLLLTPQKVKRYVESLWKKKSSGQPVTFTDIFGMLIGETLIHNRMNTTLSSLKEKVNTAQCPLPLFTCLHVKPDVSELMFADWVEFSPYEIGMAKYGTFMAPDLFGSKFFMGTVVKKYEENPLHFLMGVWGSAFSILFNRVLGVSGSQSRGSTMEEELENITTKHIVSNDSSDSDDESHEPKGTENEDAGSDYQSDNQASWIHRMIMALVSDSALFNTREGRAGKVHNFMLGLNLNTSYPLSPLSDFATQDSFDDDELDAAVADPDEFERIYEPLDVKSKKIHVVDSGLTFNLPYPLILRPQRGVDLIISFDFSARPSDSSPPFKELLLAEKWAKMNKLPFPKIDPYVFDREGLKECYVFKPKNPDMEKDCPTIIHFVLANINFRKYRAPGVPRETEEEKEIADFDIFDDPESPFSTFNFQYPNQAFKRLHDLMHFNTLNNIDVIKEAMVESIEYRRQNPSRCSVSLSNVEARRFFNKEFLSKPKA
As to the kind of experiment: Coumarine Assay. Format: biochemical. The settings on record: 60 μM 7-hydroxycoumarinyl 6-heptenoate substrate, 4 μg cPLA2, pH 7.5, fluorescence ex 360 nm / em 460 nm; read-out: Coumarin IC50.
In general, IC50 refers to the midpoint of a concentration-inhibition curve. Consider `O=C(O)c1ccc(OCCc2c(CCNS(=O)(=O)CCN3CCC(O)C3)n(C(c3ccccc3)c3ccccc3)c3ccc(Cl)cc23)cc1` (stereo not shown) [Example 122, 4-[2-(1-benzhydryl-5-chloro-2-{2-[2-(3-hydroxy-pyrrolidine-1-yl)-ethanesulfonylamino]-ethyl}-1H-indol-3-yl)-ethoxy]-benzoic acid], for which the IC50 came to 2500 nM.

Turning to `O=C(O)c1ccc(OCCc2c(CCNS(=O)(=O)CCN3CCC(O)CC3)n(C(c3ccccc3)c3ccccc3)c3ccc(Cl)cc23)cc1` [Example 123, 4-[2-(1-Benzhydryl-5-chloro-2-{2-[2-(4-hydroxy-piperidin-1-yl)-ethanesulfonylamino]-ethyl}-1H-indol-3-yl)-ethoxy]-benzoic acid], the IC50 came out at 1700 nM.

With `CN(C)CC1CCCCN1CCS(=O)(=O)NCCc1c(CCOc2ccc(C(=O)O)cc2)c2cc(Cl)ccc2n1C(c1ccccc1)c1ccccc1` (stereo not shown) [Example 124, 4-[2-(1-Benzhydryl-5-chloro-2-{2-[2-(2-dimethylaminomethyl-piperidin-1-yl)-ethanesulfonylamino]-ethyl}-1H-indol-3-yl)-ethoxy]-benzoic acid], the IC50 is 800 nM.

For `O=C(O)c1ccc(CCCc2c(CCNS(=O)(=O)Cc3c(F)cccc3F)n(C(c3ccccc3)c3ccccc3)c3ccc(Cl)cc23)cc1` [Example 126, 4-{3-[1-benzhydryl-5-chloro-2-{2-([(2,6-difluorobenzyl)sulfonyl]amino}ethyl)-1H-indol-3-yl]propyl}benzoic acid], the IC50 turned out to be 200 nM.

On to `O=C(O)c1ccc(CCCc2c(CCNS(=O)(=O)Cc3ccc(Cl)c(Cl)c3)n(C(c3ccccc3)c3ccccc3)c3ccccc23)cc1` [Example 127, 4-{3-[1-benzhydryl-2-(2-{[(3,4-dichlorobenzyl)sulfonyl]amino}ethyl)-1H-indol-3-yl]propyl}benzoic acid], for which the IC50 stood at 200 nM.

For the molecule `O=C(O)c1ccc(CCCc2c(CCNS(=O)(=O)Cc3ccccc3)n(C(c3ccccc3)c3ccccc3)c3ccccc23)cc1` [Example 128, 4-[3-(1-benzhydryl-2-{2-[(benzylsulfonyl)amino]ethyl}-1H-indol-3-yl)propyl]benzoic acid], the IC50 was 320 nM.

For `O=C(O)CCc1ccc(S(=O)(=O)CCc2c(CCNS(=O)(=O)Cc3c(F)cccc3F)n(C(c3ccccc3)c3ccccc3)c3ccc(Cl)cc23)cc1` [Example 131, 3-[4-({2-[1-benzhydryl-5-chloro-2-(2-{[(2,6-difluorobenzyl)sulfonyl]amino}ethyl)-1H-indol-3-yl]ethyl}sulfonyl)phenyl]propanoic acid], the 50% inhibitory concentration (IC50) was 200 nM.

`O=C(O)CCc1ccc(S(=O)(=O)CCc2c(CCNS(=O)(=O)Cc3ccccc3F)n(C(c3ccccc3)c3ccccc3)c3ccc(Cl)cc23)cc1` [Example 132, 3-[4-({2-[1-benzhydryl-5-chloro-2-(2-{[(2-fluorobenzyl)sulfonyl]amino}ethyl)-1H-indol-3-yl]ethyl}sulfonyl)phenyl] propanoic acid]: the half-inhibitory concentration (IC50) amounted to 200 nM.

For the molecule `O=C(O)CCc1ccc(S(=O)(=O)CCc2c(CCNS(=O)(=O)Cc3ccccc3Cl)n(C(c3ccccc3)c3ccccc3)c3ccc(Cl)cc23)cc1` [Example 133, 3-[4-({2-[1-benzhydryl-5-chloro-2-(2-{[(2-chlorobenzyl)sulfonyl]amino}ethyl)-1H-indol-3-yl]ethyl}sulfonyl)phenyl]propanoic acid], the concentration for half-maximal inhibition (IC50) stood at 90 nM.

With `O=C(O)c1ccc(CNCc2c(CCNS(=O)(=O)Cc3ccccc3)n(C(c3ccccc3)c3ccccc3)c3ccc(Cl)cc23)cc1` [Example 134, 4-({[(1-benzhydryl-2-{2-[(benzylsulfonyl)amino]ethyl}-5-chloro-1H-indol-3-yl)methyl]amino}methyl)benzoic acid], the IC50 is more than 1000 nM.

On to `O=C(O)c1ccc(S(=O)(=O)CCc2c(CCNS(=O)(=O)Cc3ccccc3)n(C(c3ccccc3)c3ccccc3)c3ccc(Cl)cc23)cc1` [Example 135], for which the IC50 worked out at 200 nM.

Consider `O=C(O)c1ccc(S(=O)(=O)CCc2c(CCNS(=O)(=O)Cc3ccccc3Cl)n(C(c3ccccc3)c3ccccc3)c3ccc(Cl)cc23)cc1` [Example 136], for which the IC50 was determined as 180 nM.

`O=C(O)c1ccc(S(=O)(=O)CCc2c(CCNS(=O)(=O)Cc3ccccc3F)n(C(c3ccccc3)c3ccccc3)c3ccc(Cl)cc23)cc1` [Example 138, 4-({2-[1-benzhydryl-5-chloro-2-(2-{[(2-fluorobenzyl)sulfonyl]amino}ethyl)-1H-indol-3-yl]ethyl}sulfonyl)benzoic acid]: the IC50 is 200 nM.

With `O=C(O)c1ccc(OCCc2c(CCNS(=O)(=O)CCN3CCCC3)n(C(c3ccccc3)c3ccccc3)c3ccc(Cl)cc23)cc1` [Example 139, 4-(2-{1-Benzhydryl-5-chloro-2-[2-(2-pyrrolidin-1-yl-ethanesulfonylamino)-ethyl]-1H-indol-3-yl}-ethoxy)-benzoic acid], the IC50 came to 1700 nM.

With `O=C(O)c1ccc(S(=O)(=O)CCc2c(CCNS(=O)(=O)Cc3ccc(Cl)c(Cl)c3)n(C(c3ccccc3)c3ccccc3)c3ccc(Cl)cc23)cc1` [Example 140, 4-({2-[1-benzhydryl-5-chloro-2-(2-{[(3,4-dichlorobenzyl)sulfonyl]amino}ethyl)1H-indol-3-yl]ethyl}sulfonyl)benzoic acid], the IC50 was determined as 200 nM.

Turning to `Cc1cccc(C)c1CS(=O)(=O)NCCc1c(CCS(=O)(=O)c2ccc(C(=O)O)cc2)c2cc(Cl)ccc2n1C(c1ccccc1)c1ccccc1` [Example 141, 4-({2-[1-benzhydryl-5-chloro-2-(2-{[(2,6-dimethylbenzyl)sulfonyl]amino}ethyl) 1H-indol-3-yl]ethyl}sulfonyl)benzoic acid], the 50% inhibitory concentration (IC50) came to 170 nM.
